Patent US11459338B2, “Heterocyclic compounds as PRMT5 inhibitors” (JUBILANT EPISCRIBE LLC, priority 2018, dated 2022)
Read-outs that look alike come from different tables or passages of the source. Blank lines part the entries; values can stand above or below the compound they belong to.

How the values were obtained:
Z-138 cells = test: Z-138 long term proliferation assay (Cell Titer Glo); type: cell-based; settings: Homo sapiens; for GI50: 192 h, Z-138 cells, cell viability, day 8, read-out: PRMT5 Z138 GI50 Day 8 μM; for IC50: Z-138, 192 h, summary of Table 1, read-out: IC50 value (all the three assays): Z138 GI50 Day 8
Summary of the method: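 Z-138 cells exposed to ten-point 3-fold dilutions (top 10 μM, 0.3% DMSO) for 96 h at 37° C., 5% CO2, then re-dosed for four more days.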

PRMT5/MEP50 = biological target: T1, PRMT5/MEP50 (Homo sapiens, UniProt O14744); test: PRMT5/MEP50 enzyme assay on peptide substrates (3H-SAM Flashplate); type: biochemical; settings: PRMT5/MEP50 10 nM, H4 1-15aa peptide 100 nM, 3H-SAM 1 μM
T1 construct: Full-length human PRMT5 (NP_006100)

[1] = system: Symmetric di-methyl arginine in Z-138 cells; test: Z-138 methylation assay, ELISA for detection of symmetric di-methyl arginine; type: cell-based; settings: Homo sapiens
Description: General reagents. […] Iscove's Modified Dulbecco's Medium (IMDM), Horse serum, penicillin-streptomycin, PBS and TMB-ELISA substrate solution were purchased from ThermoFisher Scientific. Symmetric di-methyl arginine antibody was purchased from Cell Signaling Technologies.Anti-SNRPD3/SmD3 antibody was purchased from Sigma-Aldrich.
ELISA for detection of Symmetric di-methyl arginine. […] A compound source plate was prepared by performing ten-point 3-fold dilution in DMSO, such that the final top concentration of the compound was 10 μM, and DMSO was 0.3%. The total volume of compounds added was 20 μL. The cells were incubated for 96 h at 37° C., 5% CO2. Z-138 cells were directly lysed in media with 3× Lysis Buffer (1×: 10 mM HEPES pH7.9, 5 mM MgCl2, 1M NaCl, 0.25M Sucrose, 1% Triton X-100, 1 mM PMSF, Protease & Phosphatase inhibitors). […] Plates were incubated at room temperature for a minimum of 3 h and then washed with PBS-Tween 20 (0.05%). The plates were blocked with 5% BSA at room temperature for 1 h, washed with PBS-Tween 20 and incubated with primary antibody at 4 C overnight.

[2] = Z-138, 96 h, summary of Table 1, read-out: IC50 value (all the three assays): Z138 SDMA ELISA Day 4
[3] = Z-138 cells, 96 h (day 4), read-out: PRMT5 Z138 SDMA ELISA Day 4 μM

T1 sequence (O14744 whole entry): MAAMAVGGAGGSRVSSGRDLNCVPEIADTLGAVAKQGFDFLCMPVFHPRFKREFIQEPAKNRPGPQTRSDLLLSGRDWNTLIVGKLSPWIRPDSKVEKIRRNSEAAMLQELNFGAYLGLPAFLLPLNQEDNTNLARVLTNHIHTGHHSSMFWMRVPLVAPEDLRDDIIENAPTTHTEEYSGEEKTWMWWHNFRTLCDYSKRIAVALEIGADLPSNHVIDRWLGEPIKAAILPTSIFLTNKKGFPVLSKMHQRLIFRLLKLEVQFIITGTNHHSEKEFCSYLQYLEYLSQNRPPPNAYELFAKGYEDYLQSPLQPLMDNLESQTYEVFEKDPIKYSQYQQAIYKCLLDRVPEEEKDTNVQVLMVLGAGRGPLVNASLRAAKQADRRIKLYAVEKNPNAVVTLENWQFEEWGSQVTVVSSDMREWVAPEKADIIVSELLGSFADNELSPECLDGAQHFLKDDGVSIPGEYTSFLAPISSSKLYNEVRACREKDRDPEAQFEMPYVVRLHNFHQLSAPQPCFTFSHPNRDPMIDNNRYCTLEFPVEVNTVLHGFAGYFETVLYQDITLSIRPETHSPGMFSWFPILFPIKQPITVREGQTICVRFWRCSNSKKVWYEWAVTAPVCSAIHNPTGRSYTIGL
T1 sequence (Q9BQA1 whole entry partner): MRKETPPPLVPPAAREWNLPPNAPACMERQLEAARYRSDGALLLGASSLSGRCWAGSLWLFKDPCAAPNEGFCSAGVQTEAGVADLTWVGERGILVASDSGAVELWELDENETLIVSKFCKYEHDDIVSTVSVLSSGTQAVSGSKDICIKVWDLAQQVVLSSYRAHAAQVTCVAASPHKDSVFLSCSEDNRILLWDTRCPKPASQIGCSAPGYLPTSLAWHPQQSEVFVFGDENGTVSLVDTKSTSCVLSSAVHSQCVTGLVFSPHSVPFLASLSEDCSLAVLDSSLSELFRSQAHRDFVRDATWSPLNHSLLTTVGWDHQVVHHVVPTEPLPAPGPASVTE

IC50 (PRMT5/MEP50): 0.01 to 1 µM | IC50 [1, 2]: 0.01 to 1 µM | IC50 [1, 3]: 0.01 to 1 µM
SMILES: CCCc1nc(-c2ccc3nc(C(=O)NC[C@H](O)CN4CCc5ccccc5C4)cn3c2)no1 [Example 5, (S)—N-(3-(3,4-dihydroisoquinolin-2(1H)-yl)-2-hydroxypropyl)-6-(5-propyl-1,2,4-oxadiazol-3-yl)imidazo[1,2-a]pyridine-2-carboxamide]
GI50 (Z-138 cells): 0.01 to 1 µM | IC50 (Z-138 cells): 0.01 to 1 µM

IC50 (PRMT5/MEP50): 0.01 to 1 µM | IC50 [1, 2]: 0.01 to 1 µM | IC50 [1, 3]: 0.01 to 1 µM
SMILES: O=C(NC[C@H](O)CN1CCc2ccccc2C1)c1cn2cc(C(F)(F)F)ccc2n1 [Example 8, (S)—N-(3-(3,4-dihydroisoquinolin-2(1H)-yl)-2-hydroxypropyl)-6(trifluoromethyl) imidazo[1,2-a]pyridine-2-carboxamide]
GI50 (Z-138 cells): 0.01 to 1 µM | IC50 (Z-138 cells): 0.01 to 1 µM

IC50 (PRMT5/MEP50): 1 to 5 µM | IC50 [1, 3]: 0.01 to 1 µM
SMILES: COc1ccc2nc(C(=O)NCC(O)CN3CCc4ccccc4C3)cn2c1 (stereo not shown) [Example 9, N-(3-(3,4-dihydroisoquinolin-2(1H)-yl)-2-hydroxypropyl)-6-methoxyimidazo [1,2a]pyridine-2-carboxamide]
GI50 (Z-138 cells): 1 to 5 µM

IC50 (PRMT5/MEP50): > 5 µM | IC50 [1, 3]: 0.01 to 1 µM
SMILES: Cn1cc(-c2ccc3nc(C(=O)NC[C@H](O)CN4CCc5ccccc5C4)cn3c2)cn1 [Example 13, (S)—N-(3-(3,4-dihydroisoquinolin-2(1H)-yl)-2-hydroxypropyl)-6-(1-methyl-1H-pyrazol-4-yl)imidazo[1,2-a]pyridine-2-carboxamide]
GI50 (Z-138 cells): > 5 µM

IC50 (PRMT5/MEP50): 0.01 to 1 µM | IC50 [1, 2]: 0.01 to 1 µM | IC50 [1, 3]: 0.01 to 1 µM
SMILES: N#Cc1ccc(-c2ccc3nc(C(=O)NC[C@H](O)CN4CCc5ccccc5C4)cn3c2)cc1 [Example 14, (S)-6-(4-cyanophenyl)-N-(3-(3,4-dihydroisoquinolin-2(1H)-yl)-2-hydroxypropyl) imidazo[1,2-a]pyridine-2-carboxamide]
GI50 (Z-138 cells): 0.01 to 1 µM | IC50 (Z-138 cells): 0.01 to 1 µM

IC50 [1, 3]: 0.01 to 1 µM
SMILES: O=C(NC[C@H](O)CN1CCc2ccccc2C1)c1cn2c(n1)CCC(C1CC1)C2 (stereo partly drawn) [Example 104, 6-cyclopropyl-N—((S)-3-(3,4-dihydroisoquinolin-2(1H)-yl)-2-hydroxypropyl)-5,6,7,8-tetrahydroimidazo[1,2-a]pyridine-2-carboxamide]
GI50 (Z-138 cells): 1 to 5 µM

The remaining lines, values behind:

SMILES: CC(C)c1ccc2nc(C(=O)NCC(O)CN3CCc4ccccc4C3)cn2c1 (stereo in doubt) [Example 12, (S)—N-(3-(3,4-dihydroisoquinolin-2(1H)-yl)-2-hydroxypropyl)-6-isopropylimidazo [1,2-a]pyridine-2-carboxamide]
GI50 (Z-138 cells): 0.01 to 1 µM | IC50 (Z-138 cells): 0.01 to 1 µM | IC50 (PRMT5/MEP50): 0.01 to 1 µM | IC50 [1, 2]: 0.01 to 1 µM | IC50 [1, 3]: 0.01 to 1 µM

SMILES: CC(C)Cn1cc(-c2ccc3nc(C(=O)NCC(O)CN4CCc5ccccc5C4)cn3c2)cn1 (stereo in doubt) [Example 18, (S)—N-(3-(3,4-dihydroisoquinolin-2(1H)-yl)-2-hydroxypropyl)-6-(1-isobutyl-1H-pyrazol-4-yl)imidazo[1,2-a]pyridine-2-carboxamide]
GI50 (Z-138 cells): 0.01 to 1 µM | IC50 (Z-138 cells): 0.01 to 1 µM | IC50 (PRMT5/MEP50): 0.01 to 1 µM | IC50 [1, 2]: 0.01 to 1 µM | IC50 [1, 3]: 0.01 to 1 µM

SMILES: O=C(NCC(O)CN1CCc2ccccc2C1)c1cn2cc(C(F)(F)F)ccc2n1 (stereo not shown) [Example 1, N-(3-(3,4-dihydroisoquinolin-2(1H)-yl)-2-hydroxypropyl)-6-(trifluoromethyl)imidazo[1,2-a]pyridine-2-carboxamide]
GI50 (Z-138 cells): 0.01 to 1 µM | IC50 (Z-138 cells): 0.01 to 1 µM | IC50 (PRMT5/MEP50): 0.01 to 1 µM | IC50 [1, 2]: 0.01 to 1 µM | IC50 [1, 3]: 0.01 to 1 µM

SMILES: Cc1ccc2nc(C(=O)NCC(O)CN3CCc4ccccc4C3)cn2c1 (stereo not shown) [Example 2, N-(3-(3,4-dihydroisoquinolin-2(1H)-yl)-2-hydroxypropyl)-6-methylimidazo[1,2-a]pyridine-2-carboxamide]
GI50 (Z-138 cells): 0.01 to 1 µM | IC50 (Z-138 cells): 0.01 to 1 µM | IC50 (PRMT5/MEP50): 0.01 to 1 µM | IC50 [1, 2]: 0.01 to 1 µM | IC50 [1, 3]: 0.01 to 1 µM

SMILES: CCn1cc(-c2ccc3nc(C(=O)NC[C@H](O)CN4CCc5ccccc5C4)cn3c2)cn1 [Example 4, (S)—N-(3-(3,4-dihydroisoquinolin-2(1H)-yl)-2-hydroxypropyl)-6-(1-ethyl-1H-pyrazol-4-yl)imidazo [1,2-a]pyridine-2-carboxamide]
GI50 (Z-138 cells): 0.01 to 1 µM | IC50 (Z-138 cells): 0.01 to 1 µM | IC50 (PRMT5/MEP50): 0.01 to 1 µM | IC50 [1, 2]: 0.01 to 1 µM | IC50 [1, 3]: 0.01 to 1 µM

SMILES: Cc1nc(-c2ccc3nc(C(=O)NC[C@H](O)CN4CCc5ccccc5C4)cn3c2)no1 [Example 6, (S)—N-(3-(3,4-dihydroisoquinolin-2(1H)-yl)-2-hydroxypropyl)-6-(5-methyl-1,2,4-oxadiazol-3-yl)imidazo[1,2-a]pyridine-2-carboxamide]
GI50 (Z-138 cells): 0.01 to 1 µM | IC50 (Z-138 cells): 0.01 to 1 µM | IC50 (PRMT5/MEP50): 0.01 to 1 µM | IC50 [1, 2]: 0.01 to 1 µM | IC50 [1, 3]: 0.01 to 1 µM

SMILES: O=C(NCC(O)CN1CCc2ccccc2C1)c1cn2cc(-c3ccccc3)ccc2n1 (stereo not shown) [Example 10, N-(3-(3,4-dihydroisoquinolin-2(1H)-yl)-2-hydroxypropyl)-6-phenylimidazo[1,2-a]pyridine-2-carboxamide]
GI50 (Z-138 cells): 0.01 to 1 µM | IC50 (Z-138 cells): 0.01 to 1 µM | IC50 (PRMT5/MEP50): 0.01 to 1 µM | IC50 [1, 2]: 0.01 to 1 µM | IC50 [1, 3]: 0.01 to 1 µM

SMILES: O=C(NCC(O)CN1CCc2ccccc2C1)c1cn2cc(-c3ccc(F)cc3)ccc2n1 (stereo not shown) [Example 11, N-(3-(3,4-dihydroisoquinolin-2(1H)-yl)-2-hydroxypropyl)-6-(4-fluorophenyl) imidazo[1,2-a]pyridine-2-carboxamide]
GI50 (Z-138 cells): 0.01 to 1 µM | IC50 (Z-138 cells): 0.01 to 1 µM | IC50 (PRMT5/MEP50): 0.01 to 1 µM | IC50 [1, 2]: 0.01 to 1 µM | IC50 [1, 3]: 0.01 to 1 µM

SMILES: Cc1noc(C)c1-c1ccc2nc(C(=O)NC[C@H](O)CN3CCc4ccccc4C3)cn2c1 [Example 15, (S)—N-(3-(3,4-dihydroisoquinolin-2(1H)-yl)-2-hydroxypropyl)-6-(3,5-dimethylisoxazol-4-yl)imidazo[1,2-a]pyridine-2-carboxamide]
GI50 (Z-138 cells): 0.01 to 1 µM | IC50 (Z-138 cells): 0.01 to 1 µM | IC50 (PRMT5/MEP50): 0.01 to 1 µM | IC50 [1, 2]: 0.01 to 1 µM | IC50 [1, 3]: 0.01 to 1 µM

SMILES: O=C(NC[C@H](O)CN1CCc2ccccc2C1)c1cn2cc(-c3cc(F)cc(F)c3)ccc2n1 [Example 16, (S)-6-(3,5-difluorophenyl)-N-(3-(3,4-dihydroisoquinolin-2(1H)-yl)-2-hydroxypropyl)imidazo[1,2-a]pyridine-2-carboxamide]
GI50 (Z-138 cells): 0.01 to 1 µM | IC50 (Z-138 cells): 0.01 to 1 µM | IC50 (PRMT5/MEP50): 0.01 to 1 µM | IC50 [1, 2]: 0.01 to 1 µM | IC50 [1, 3]: 0.01 to 1 µM

SMILES: O=C(NC[C@H](O)CN1CCc2ccccc2C1)c1cn2cc(-c3ccc(F)cc3)ccc2n1 [Example 17, (S)—N-(3-(3,4-dihydroisoquinolin-2(1H)-yl)-2-hydroxypropyl)-6-(4fluorophenyl) imidazo[1,2-a]pyridine-2-carboxamide]
GI50 (Z-138 cells): 0.01 to 1 µM | IC50 (Z-138 cells): 0.01 to 1 µM | IC50 (PRMT5/MEP50): 0.01 to 1 µM | IC50 [1, 2]: 0.01 to 1 µM | IC50 [1, 3]: 0.01 to 1 µM

SMILES: O=C(NC[C@H](O)CN1CCc2ccccc2C1)c1cn2cc(C3=CCOCC3)ccc2n1 [Example 19, (S)-6-(3,6-dihydro-2H-pyran-4-yl)-N-(3-(3,4-dihydroisoquinolin-2(1H)-yl)-2-hydroxypropyl)imidazo[1,2-a]pyridine-2-carboxamide]
GI50 (Z-138 cells): 0.01 to 1 µM | IC50 (Z-138 cells): 0.01 to 1 µM | IC50 (PRMT5/MEP50): 0.01 to 1 µM | IC50 [1, 2]: 0.01 to 1 µM | IC50 [1, 3]: 0.01 to 1 µM

SMILES: CCCC1CCn2cc(C(=O)NCC(O)CN3CCc4ccccc4C3)nc2C1 (stereo not shown) [Example 105, N-(3-(3,4-dihydroisoquinolin-2(1H)-yl)-2-hydroxypropyl)-7-propyl-5,6,7,8 tetrahydroimidazo[1,2-a]pyridine-2-carboxamide]
GI50 (Z-138 cells): 1 to 5 µM | IC50 [1, 3]: 0.01 to 1 µM
